ChEMBL document CHEMBL1122261, “Synthesis of three potential inhibitors of leukotriene biosynthesis” (1983)

Assays:
Assay type in all cases: functional
Homo sapiens [1] = organism: Homo sapiens; test: In vitro effect on lipoxygenase activity in intact human polymorphonuclear leukocytes at a concentration of 10 e-4 M on formation of Leukotriene B4 (LTB4)
Homo sapiens [2] = organism: Homo sapiens; test: In vitro effect on lipoxygenase activity in intact human polymorphonuclear leukocytes at a concen of 10 e-4 M on formation of 5-HETE
Homo sapiens [3] = organism: Homo sapiens; test: In vitro effect on lipoxygenase activity in intact human polymorphonuclear leukocytes at a concentration of 10 e-4 M on formation of 5-HETE

Compound | Effect (Homo sapiens [1]) | Effect (Homo sapiens [2]) | Effect (Homo sapiens [3])
CCCCC/C=C\C/C=C\C/C=C\Cc1ccccc1CCCC(=O)O | -91% | -94% | 
CCCCC/C=C\C/C=C\C/C=C\C(C)(C)/C=C\CCCC(=O)O | 19% |  | 29%
CCCCC/C=C\C/C=C\C(C)(C)/C=C\C/C=C\CCCC(=O)O | 40% | 60% | 
